Results on 5 molecules are retold here after patent US11390621B2, “Chiral indole compounds and their use” (ARIAGEN, INC., priority 2019, dated 2022).

Several values for one entry are separate records, joined by “and”; a condition that tells them apart may be missing. Identical values can stand only once.

The nature of data set [1]: CYP profiling: turnover in human liver microsomes, 30 min, no inhibitor. It counts as in vitro ADME. Details: % Compound Metabolized at 30 min, No Inhibitor: concentration or dose not given beside the values. The conditions noted are these: HLMs. The protocol: In order to investigate the contributions of CYP1A2 and CYP3A4 to the metabolism of the compounds of the present disclosure, human liver microsomes were incubated with the test compounds for 30 minutes in the presence of selective chemical inhibitors furafylline (1A2) and ketoconazole (3A4).

Data set [2] can be described thus: Hepatocyte intrinsic clearance assay (metabolic stability), human hepatocytes. It counts as in vitro ADME. The conditions noted are these: male, human, cryopreserved pooled hepatocytes, Human Hepatocytes, 1 μM test compound. In outline:
(§1)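 Cryopreserved pooled hepatocytes (1×10^6 cells/mL final) incubated with 1 μM compound at 37 °C, 5% CO2; samples at 0–120 min quenched in acetonitrile, analysed by LC-MS in duplicate. t1/2 and CLint from ln(% remaining) vs time slope; CLH via well-stirred liver model (fu=1) and EH derived from it.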

The next data set concerns human hepatocytes. The data set is described as above. Type of data set: in vitro ADME. Particulars: Human Hepatocytes; for EH (hepatic extraction ratio): well stirred liver model, fu=1. In outline: as §1
A further data set has as its target T1, AhR (Homo sapiens, UniProt P35869).
T1 construct: host or cells: human HepG2 cells
T1 sequence (P35869 11-848): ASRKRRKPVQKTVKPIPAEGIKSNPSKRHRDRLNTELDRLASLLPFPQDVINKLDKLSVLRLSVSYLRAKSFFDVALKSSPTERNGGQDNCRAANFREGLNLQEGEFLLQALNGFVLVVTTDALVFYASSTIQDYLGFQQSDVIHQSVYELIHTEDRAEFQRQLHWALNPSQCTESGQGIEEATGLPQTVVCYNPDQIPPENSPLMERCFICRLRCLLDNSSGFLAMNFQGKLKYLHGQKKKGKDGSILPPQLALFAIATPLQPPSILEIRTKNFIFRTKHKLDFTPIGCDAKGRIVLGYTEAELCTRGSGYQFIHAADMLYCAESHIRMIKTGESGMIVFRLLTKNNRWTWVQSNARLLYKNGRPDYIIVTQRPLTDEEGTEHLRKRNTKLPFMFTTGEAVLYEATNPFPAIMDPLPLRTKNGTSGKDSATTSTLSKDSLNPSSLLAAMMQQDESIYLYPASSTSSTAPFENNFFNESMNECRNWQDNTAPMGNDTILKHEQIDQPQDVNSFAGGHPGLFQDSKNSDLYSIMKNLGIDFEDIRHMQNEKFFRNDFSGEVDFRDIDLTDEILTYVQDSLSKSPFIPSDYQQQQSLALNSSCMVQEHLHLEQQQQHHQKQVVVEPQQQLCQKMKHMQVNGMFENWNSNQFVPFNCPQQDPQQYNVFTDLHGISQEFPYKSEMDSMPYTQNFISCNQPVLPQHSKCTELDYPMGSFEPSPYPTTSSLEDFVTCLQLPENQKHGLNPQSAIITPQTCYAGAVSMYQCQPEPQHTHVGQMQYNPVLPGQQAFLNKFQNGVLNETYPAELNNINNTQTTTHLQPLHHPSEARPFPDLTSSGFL
The data set can be described thus: EROD assay (7-ethoxy-resorufin-O-deethylase; CYP1A1 activity) in human HepG2 cells. Type of data set: cell-based. Particulars: for EC90: HepG2, human HepG2 cells. The protocol:
CYP1A1 induction is under the control of the AhR signaling pathway. This Example describes an in vitro assay (7-ethoxy-resorufin-O-deethylase (EROD) assay) that evaluated the AhR modulating activities of the indole compounds described herein. In this assay, the indole compounds were incubated with human HepG2 cells or mouse Hepa1-6 cells. The activity of CYP1A1 in the cells was measured by the conversion of substrate 7-ethoxyresorufin, with the readout being a fluorescence signal associated with the conversion product. The EC50 values of the indole compounds as well as the maximum luminescence induced by them in the assay were determined.
Human HepG2 cells were obtained from Sigma Aldrich (Catalog 85011430-1VL).
Human HepG2 cells were grown to 60-80% confluency in tissue culture flasks, lifted with non-enzymatic cell dissociation solution (cell stripper), seeded in a 384-well plate at 5,000 cells per well, treated with the test compounds, and incubated for 20 hours overnight at 37° C. The treatment medium was removed and a solution of substrate 7-ethoxyresorufin (ETX) was added to initiate the reaction. The plate was incubated at 37° C. for 30 minutes. The reaction was subsequently terminated by adding tempered methanol. Fluorescent emission was measured at 590 nm with excitation at 530 nm in a FLEXSTATION III instrument (Molecular Devices).

Take `CC(C)(N)c1csc(C(=O)c2c[nH]c3cc(F)ccc23)n1` [ARI-226, (4-(2-aminopropan-2-yl)thiazol-2-yl)(6-fluoro-1H-indol-3-yl)methanone]: in data set [1], the “% Compound Metabolized at 30 min, No Inhibitor” value came to 6% and the “metabolic turnover (in words)” value is “low turnover”. In data set [2], this molecule showed a half-life at 1 μM of 3 h and a hepatocyte CLint at 1 μM of 3.85 µL/min/1e6 cells. Further, the “EH (hepatic extraction ratio)” value in the data set on human hepatocytes was found to be 15.8%. This molecule gave an EC90 on AhR (Plate 2) of 33 nM. For the same molecule, at AhR (human HepG2 cells), the “fold more potent than ARI-164 by EC50” value turned out to be 4.2 × and the “fold more potent than ARI-164 by EC90” value is given as 4.2 ×. The same molecule had an EC50 on AhR (human HepG2 cells, Plate 2) of 24.6 nM.
Take `N[C@H](c1csc(C(=O)c2c[nH]c3cc(F)ccc23)n1)C(F)(F)F` [ARI-223]: in data set [1], the “% Compound Metabolized at 30 min, No Inhibitor” value is 79% and the “metabolic turnover (in words)” value is given as “high turnover”. Moreover, in data set [2], the half-life at 1 μM was 1 h and the hepatocyte CLint at 1 μM was 11.6 µL/min/1e6 cells. The “EH (hepatic extraction ratio)” value in the data set with human hepatocytes turned out to be 23.7%. This molecule registered an EC90 at AhR (Plate 2) of 103 nM. Further, the EC50 on AhR (human HepG2 cells, Plate 2) amounted to 22.6 nM.
For the molecule `NC1(c2csc(C(=O)c3c[nH]c4cc(F)ccc34)n2)CC1` [ARI-225, (4-(1-aminocyclopropyl)thiazol-2-yl)(6-fluoro-1H-indol-3-yl)methanone], in data set [1], the “% Compound Metabolized at 30 min, No Inhibitor” value was found to be 39% and the “metabolic turnover (in words)” value is “high turnover”. For the same molecule, in data set [2], the half-life at 1 μM is 2.3 h and the intrinsic clearance (hepatocyte CLint) at 1 μM is 4.96 µL/min/1e6 cells. In the data set with human hepatocytes, the “EH (hepatic extraction ratio)” value stood at 17.8%. The molecule further gave a 90% effect concentration (EC90) at AhR (Plate 2) of 109 nM. Moreover, the midpoint of the response at AhR (human HepG2 cells, Plate 2), the EC50, lay at 46.8 nM.
For `CC[C@H](O)c1csc(C(=O)c2c[nH]c3cc(F)ccc23)n1` [ARI-164, (S)-(6-Fluoro-1H-indol-3-yl)(4-(1-hydroxypropyl)thiazol-2-yl)methanone], the “% Compound Metabolized at 30 min, No Inhibitor” value in data set [1] came to 37%. The molecule further had a half-life at 1 μM in data set [2] of 0.7 h. Besides, the intrinsic clearance (hepatocyte CLint) at 1 μM in data set [2] is 15.7 µL/min/1e6 cells. For the same molecule, the CLint with human hepatocytes (1 μM test compound) was 13.556 μL/min/10^6 cells and 15.446 μL/min/10^6 cells and 13.712 μL/min/10^6 cells and 15.383 μL/min/10^6 cells. Besides, the “EH (hepatic extraction ratio)” value in the data set with human hepatocytes was 25.3% and 24.6% and 25.2% and 19.9%. The concentration for an effect of 90% (EC90) on AhR (Plate 1) was found to be 134 nM; on AhR (Plate 2), 138 nM. Also, the EC50 worked out at 104 nM on AhR (human HepG2 cells, Plate 1) and 104 nM at AhR (human HepG2 cells, Plate 2).
`CC[C@H](N)c1csc(C(=O)c2c[nH]c3ccc(F)cc23)n1` [ARI-218]: the “% Compound Metabolized at 30 min, No Inhibitor” value in data set [1] was found to be 16%. In data set [2], this molecule showed a half-life at 1 μM of 1.3 h and an intrinsic clearance (hepatocyte CLint) at 1 μM of 9.16 µL/min/1e6 cells. Besides, in the data set on human hepatocytes, the “EH (hepatic extraction ratio)” value came out at 22.2%. Further, the EC90 at AhR (Plate 2) came to 7.9 nM. Besides, at AhR (human HepG2 cells), the “fold more potent than ARI-219 by EC50” value is reported as 19.7 × and the “fold more potent than ARI-219 by EC90” value is recorded as 53 ×. Further, on AhR (human HepG2 cells, Plate 2), the half-maximal effective concentration (EC50) worked out at 6.3 nM.
